Measurements taken from patent US20140275094A1, “METHOD FOR TREATING PULMONARY ARTERIAL HYPERTENSION IN A PATIENT NOT HAVING IDIOPATHIC PULMONARY FIBROSIS” (GILEAD SCIENCES, INC., priority 2012, published 2014).

What was measured:
[1] = molecular target: T1, sodium taurocholate cotransporting polypeptide (NTCP) (Homo sapiens, UniProt Q14973); experiment: Inhibition of hepatic transporter NTCP, transfected CHO cells; type: cell-based
T1 construct: expressed in transfected cells; host or cells: Chinese Hamster Ovary (CHO)
T1 sequence (Q14973 1-349): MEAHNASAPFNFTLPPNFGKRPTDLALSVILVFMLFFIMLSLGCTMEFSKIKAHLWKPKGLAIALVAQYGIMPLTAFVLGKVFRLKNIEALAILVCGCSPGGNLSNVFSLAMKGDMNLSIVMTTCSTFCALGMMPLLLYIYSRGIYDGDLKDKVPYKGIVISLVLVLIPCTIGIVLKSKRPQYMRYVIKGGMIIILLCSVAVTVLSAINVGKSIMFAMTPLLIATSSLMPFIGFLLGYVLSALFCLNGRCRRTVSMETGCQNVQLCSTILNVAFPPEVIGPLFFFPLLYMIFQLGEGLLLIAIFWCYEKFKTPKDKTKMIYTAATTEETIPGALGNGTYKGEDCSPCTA
Description: (§1) Inhibition constants (IC50) were measured for human bile salt export pump (BSEP), sodium taurocholate cotransporting polypeptide (NTCP), multidrug resistance protein 2 (MRP2), P-glycoprotein (Pgp), breast cancer resistance protein (BCRP), organic anion-transporting polypeptide 1B1 (OATP1B1), and OATP1B3 in transfected cell-lines. Known inhibitors were used as positive controls.

[2] = molecular target: T2, human bile salt export pump (BSEP) (Homo sapiens, UniProt O95342); experiment: Inhibition of hepatic transporter BSEP, Sf9 cell membrane vesicles; type: biochemical
T2 construct: expressed in transfected cells; host or cells: Sf9 cell membrane vesicles
T2 sequence (O95342 whole entry): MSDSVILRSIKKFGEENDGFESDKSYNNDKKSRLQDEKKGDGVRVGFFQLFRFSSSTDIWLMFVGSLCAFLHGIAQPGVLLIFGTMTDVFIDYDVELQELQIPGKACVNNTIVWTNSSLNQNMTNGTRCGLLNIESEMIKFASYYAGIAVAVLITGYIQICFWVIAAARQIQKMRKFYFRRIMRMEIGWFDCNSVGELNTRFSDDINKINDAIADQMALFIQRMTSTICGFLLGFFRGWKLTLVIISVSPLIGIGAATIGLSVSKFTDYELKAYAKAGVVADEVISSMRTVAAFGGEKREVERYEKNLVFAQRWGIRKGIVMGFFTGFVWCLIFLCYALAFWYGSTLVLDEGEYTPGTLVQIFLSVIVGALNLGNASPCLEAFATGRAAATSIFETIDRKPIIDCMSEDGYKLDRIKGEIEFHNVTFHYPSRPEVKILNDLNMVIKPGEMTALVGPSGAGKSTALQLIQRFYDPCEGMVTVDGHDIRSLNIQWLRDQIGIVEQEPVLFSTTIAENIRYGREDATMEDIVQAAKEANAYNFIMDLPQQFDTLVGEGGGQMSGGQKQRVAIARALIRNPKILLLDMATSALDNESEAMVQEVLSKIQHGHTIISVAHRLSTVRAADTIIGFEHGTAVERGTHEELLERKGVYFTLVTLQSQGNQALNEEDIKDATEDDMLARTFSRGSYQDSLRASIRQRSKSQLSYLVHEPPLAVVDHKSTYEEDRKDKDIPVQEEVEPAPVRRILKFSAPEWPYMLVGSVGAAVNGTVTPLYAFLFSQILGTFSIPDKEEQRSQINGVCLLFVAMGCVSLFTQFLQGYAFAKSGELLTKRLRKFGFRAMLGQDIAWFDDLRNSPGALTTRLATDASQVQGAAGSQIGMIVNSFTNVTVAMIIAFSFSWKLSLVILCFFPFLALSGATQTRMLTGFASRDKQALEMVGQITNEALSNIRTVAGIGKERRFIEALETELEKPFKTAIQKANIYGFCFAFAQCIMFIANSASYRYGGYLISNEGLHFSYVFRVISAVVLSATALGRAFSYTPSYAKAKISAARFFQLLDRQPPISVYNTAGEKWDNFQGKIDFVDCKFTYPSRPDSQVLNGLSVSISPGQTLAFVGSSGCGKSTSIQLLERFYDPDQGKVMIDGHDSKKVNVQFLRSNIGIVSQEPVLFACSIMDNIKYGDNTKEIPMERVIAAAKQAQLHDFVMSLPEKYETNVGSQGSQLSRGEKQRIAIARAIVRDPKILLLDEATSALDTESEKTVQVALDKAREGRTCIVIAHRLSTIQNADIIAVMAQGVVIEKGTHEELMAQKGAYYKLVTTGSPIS
Description: as §1

OATP1B3 = molecular target: T3, OATP1B3 (Homo sapiens, UniProt Q9NPD5); experiment: Inhibition of OATP1B3, transfected CHO cells; type: cell-based; conditions: OAT1B3
T3 construct: expressed in transfected cells; host or cells: CHO
T3 sequence (Q9NPD5 1-702): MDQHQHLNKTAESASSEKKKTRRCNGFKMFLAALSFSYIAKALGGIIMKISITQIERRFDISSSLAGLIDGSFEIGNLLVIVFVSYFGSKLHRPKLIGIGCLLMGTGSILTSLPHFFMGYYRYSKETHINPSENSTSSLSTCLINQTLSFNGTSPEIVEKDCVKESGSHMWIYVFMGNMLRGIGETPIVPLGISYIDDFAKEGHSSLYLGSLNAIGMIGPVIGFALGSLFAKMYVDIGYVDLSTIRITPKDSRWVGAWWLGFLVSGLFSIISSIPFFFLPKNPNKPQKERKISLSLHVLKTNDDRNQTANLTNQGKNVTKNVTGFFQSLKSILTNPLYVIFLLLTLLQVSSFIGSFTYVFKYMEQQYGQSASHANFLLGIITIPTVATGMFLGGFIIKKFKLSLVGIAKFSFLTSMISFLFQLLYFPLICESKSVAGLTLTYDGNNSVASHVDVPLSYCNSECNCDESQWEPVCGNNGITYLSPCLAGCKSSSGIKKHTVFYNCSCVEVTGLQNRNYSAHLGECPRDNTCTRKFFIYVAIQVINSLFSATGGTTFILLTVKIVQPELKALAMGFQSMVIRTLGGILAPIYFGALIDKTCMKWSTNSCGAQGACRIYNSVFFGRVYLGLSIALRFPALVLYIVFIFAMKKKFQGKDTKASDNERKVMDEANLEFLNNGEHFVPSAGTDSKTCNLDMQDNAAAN
Description: as §1

[3] = molecular target: T4, organic anion-transporting polypeptide 1B1 (OATP1B1) (Homo sapiens, UniProt Q9Y6L6); experiment: Inhibition of OATP1B1, transfected CHO cells; type: cell-based
T4 construct: expressed in transfected cells; host or cells: CHO
T4 sequence (Q9Y6L6 1-691): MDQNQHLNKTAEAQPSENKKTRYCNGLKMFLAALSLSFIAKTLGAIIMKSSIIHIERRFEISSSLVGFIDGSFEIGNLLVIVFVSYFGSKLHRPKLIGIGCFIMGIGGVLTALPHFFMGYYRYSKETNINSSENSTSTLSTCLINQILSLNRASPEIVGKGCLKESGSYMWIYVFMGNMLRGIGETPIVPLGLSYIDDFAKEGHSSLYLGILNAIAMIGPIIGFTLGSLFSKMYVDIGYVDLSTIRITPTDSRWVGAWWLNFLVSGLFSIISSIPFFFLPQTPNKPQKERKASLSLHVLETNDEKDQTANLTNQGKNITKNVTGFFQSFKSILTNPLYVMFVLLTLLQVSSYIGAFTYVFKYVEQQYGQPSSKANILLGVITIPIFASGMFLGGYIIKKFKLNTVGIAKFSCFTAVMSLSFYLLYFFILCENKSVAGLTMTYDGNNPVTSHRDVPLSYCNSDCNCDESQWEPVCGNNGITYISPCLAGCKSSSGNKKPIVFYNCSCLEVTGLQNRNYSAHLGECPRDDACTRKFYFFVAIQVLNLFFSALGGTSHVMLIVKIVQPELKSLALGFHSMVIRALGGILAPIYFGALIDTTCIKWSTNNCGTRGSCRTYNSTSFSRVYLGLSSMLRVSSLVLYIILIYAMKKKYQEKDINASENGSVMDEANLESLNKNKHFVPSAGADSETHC
Description: as §1

| IC50 ([1]; NTCP) [µM] | Structure (SMILES) | effect on NTCP [1] | effect on BSEP [2] | IC50 (OATP1B3) [µM] | IC50 [3] [µM] | IC50 ([2]; BSEP) [µM] |
| --- | --- | --- | --- | --- | --- | --- |
| – | COC(c1ccccc1)(c1ccccc1)[C@H](Oc1nc(C)cc(C)n1)C(=O)O [Ambrisentan, (25)-2-[(4,6-dimethylpyrimidin-2-yl)oxy]-3-methoxy-3,3-diphenylpropanoic acid] | no measurable effect | no measurable effect | 44.6 ± 23.8 | 47 ± 21.3 | – |
| 36.5 | COc1ccccc1Oc1c(NS(=O)(=O)c2ccc(C(C)(C)C)cc2)nc(-c2ncccn2)nc1OCCO [Bosentan] | inhibition was observed | inhibition was observed | 5.2 ± 2.1 | 5 ± 2 | 54.4 |
